The values below come from patent publication US12065445B2, “CDK2 inhibitors and methods of using the same” (Cedilla Therapeutics, Inc., priority 2021, dated 2024).

This assay deals with Kuramochi cells. Briefly: BrdU Cell Proliferation Assay. It counts as cell-based. The following applies: read-out: BrdU - KURAMOCHI.1: IC50. An outline of the steps:
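Signal is 450 nm absorbance from a peroxidase anti-BrdU ELISA after a 1-hour BrdU label, background-subtracted and normalized to DMSO-treated wells. Kuramochi cells (2,000 per well) had been exposed to compound for 4 days. Dosing used a 10-point dose response in 3-fold steps.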
Consider `CNC(=O)[C@@H](NC(=O)[C@H]1CN(C(=O)c2cnn(Cc3ccccc3)c2)CC12CN(C(=O)C1C(C)(C)C1(C)C)C2)[C@@H](C)OCc1ccccc1` [I-89B], for which the IC50 (as a rule, the concentration that inhibits the measured activity by half) was above 10 µM.
For the compound `CNC(=O)[C@@H](NC(=O)[C@@H]1CN(C(=O)c2cnn(Cc3ccccc3)c2)CC12CN(C(=O)C(C)(C)F)C2)[C@@H](C)OCc1ccccc1` [I-90A], the IC50 was above 10 µM.
For `CNC(=O)[C@@H](NC(=O)[C@H]1CN(C(=O)c2cnn(Cc3ccccc3)c2)CC12CN(C(=O)C(C)(C)F)C2)[C@@H](C)OCc1ccccc1` [I-90B] the value was above 10 µM.
For `CC1(C)C[C@@H]1C(=O)N1CC2(CN(C(=O)c3cnn(Cc4ccccc4)c3)C[C@H]2C(=O)N2CCCC(Cc3ccccc3)C2)C1` (stereo partly drawn) [I-91A], the IC50 was above 10 µM.
For `CC1(C)C[C@@H]1C(=O)N1CC2(CN(C(=O)c3cnn(Cc4ccccc4)c3)C[C@@H]2C(=O)N2CCCC(Cc3ccccc3)C2)C1` (stereo partly drawn) [I-91B], the IC50 is above 10 µM.
Take `CNC(=O)[C@@H](NC(=O)[C@@H]1CN(C(=O)c2cnn(Cc3ccccc3)c2)CC12CN(C(=O)CC1(CO)CC1)C2)[C@@H](C)OCc1ccccc1` [I-92A]: the IC50 was above 10 µM.
For `CNC(=O)[C@@H](NC(=O)[C@H]1CN(C(=O)c2cnn(Cc3ccccc3)c2)CC12CN(C(=O)CC1(CO)CC1)C2)[C@@H](C)OCc1ccccc1` [I-92B] the value was above 10 µM.
As for `CC1(C)C[C@@H]1C(=O)N1CC2(CN(C(=O)c3cnn(Cc4ccccc4)c3)CC2C(=O)Nc2ncc(-c3ccccc3)o2)C1` (stereo partly drawn) [I-93], the IC50 was above 10 µM.
Consider `CCCCC1CC1C(=O)N1CC2(CN(C(=O)c3cnn(Cc4ccccc4)c3)C[C@H]2C(=O)N[C@H](C(=O)NC)[C@@H](C)OCc2ccccc2)C1` (stereo partly drawn) [I-94A], for which the IC50 was above 10 µM.
With `CCCCC1CC1C(=O)N1CC2(CN(C(=O)c3cnn(Cc4ccccc4)c3)C[C@@H]2C(=O)N[C@H](C(=O)NC)[C@@H](C)OCc2ccccc2)C1` (stereo partly drawn) [I-94B], the IC50 is above 10 µM.
For `CNC(=O)[C@@H](NC(=O)[C@@H]1CN(C(=O)c2cnn(CC3CCOCC3)c2)CC12CN(C(=O)[C@H]1CC1(C)C)C2)[C@@H](C)OCc1ccccc1` [I-95A] the value was above 10 µM.
For `CNC(=O)[C@@H](NC(=O)[C@H]1CN(C(=O)c2cnn(CC3CCOCC3)c2)CC12CN(C(=O)[C@H]1CC1(C)C)C2)[C@@H](C)OCc1ccccc1` [I-95B] the value was above 10 µM; for `CC1(C)C[C@@H]1C(=O)N1CC2(CN(C(=O)c3cnn(Cc4ccccc4)c3)C[C@H]2C(=O)NCCOCc2ccccc2)C1` [I-96A], above 10 µM.
For `CC1(C)C[C@@H]1C(=O)N1CC2(CN(C(=O)c3cnn(Cc4ccccc4)c3)C[C@@H]2C(=O)NCCOCc2ccccc2)C1` [I-96B] the value was above 10 µM.
Take `C[C@@H](OCc1ccccc1)[C@H](NC(=O)C1CN(C(=O)c2cnn(Cc3ccccc3)c2)CC12CN(C(=O)[C@H]1CC1(C)C)C2)C(=O)N1CCCC(CO)C1` (stereo partly drawn) [I-98]: the IC50 is above 10 µM.
In the case of `CNC(=O)[C@H](COCc1ccccc1)NC(=O)[C@@H]1CN(C(=O)c2cnn(Cc3ccccc3)c2)CC12CN(C(=O)C(C)(C)C)C2` [I-100A], the IC50 is above 10 µM.
As to `CNC(=O)[C@H](COCc1ccccc1)NC(=O)[C@H]1CN(C(=O)c2cnn(Cc3ccccc3)c2)CC12CN(C(=O)C(C)(C)C)C2` [I-100B], the IC50 was above 10 µM.
`CNC(=O)[C@H](CCCc1ccccc1)NC(=O)[C@@H]1CN(C(=O)c2cnn(Cc3ccccc3)c2)CC12CN(C(=O)[C@H]1CC1(C)C)C2` [I-101A]: the IC50 was above 10 µM.
For `CNC(=O)[C@H](CCCc1ccccc1)NC(=O)[C@H]1CN(C(=O)c2cnn(Cc3ccccc3)c2)CC12CN(C(=O)[C@H]1CC1(C)C)C2` [I-101B] the value was above 10 µM; for `CNC(=O)[C@@H](NC(=O)[C@@H]1CN(C(=O)c2cnn(Cc3ccccc3)c2)CC12CN(C(=O)C1(CCOC)CC1)C2)[C@@H](C)OCc1ccccc1` [I-102A], above 10 µM.
`CNC(=O)[C@@H](NC(=O)[C@H]1CN(C(=O)c2cnn(Cc3ccccc3)c2)CC12CN(C(=O)C1(CCOC)CC1)C2)[C@@H](C)OCc1ccccc1` [I-102B]: the IC50 was above 10 µM.
Consider `CNC(=O)[C@@H](NC(=O)[C@@H]1CN(C(=O)c2cncs2)CC12CN(C(=O)CC1CC1)C2)[C@@H](C)OCC1CCCCC1` [I-103A], for which the IC50 was above 10 µM.
In the case of `CNC(=O)[C@@H](NC(=O)[C@H]1CN(C(=O)c2cncs2)CC12CN(C(=O)CC1CC1)C2)[C@@H](C)OCC1CCCCC1` [I-103B], the IC50 is above 10 µM.
For `C[C@@H](OCc1ccccc1)[C@H](NC(=O)C1CN(C(=O)c2cnn(Cc3ccccc3)c2)CC12CN(C(=O)[C@H]1CC1(C)C)C2)C(=O)N1CC2(CCC2)C1` (stereo partly drawn) [I-106] the value was 0.5 to 5 µM; for `CNC(=O)[C@@H](NC(=O)[C@@H]1CN(C(=O)c2cnn(Cc3ccccc3)c2)CC12CN(C(=O)C1(C(F)(F)F)CC1)C2)[C@@H](C)OCc1ccccc1` [I-108A], above 10 µM; for `CNC(=O)[C@@H](NC(=O)[C@H]1CN(C(=O)c2cnn(Cc3ccccc3)c2)CC12CN(C(=O)C1(C(F)(F)F)CC1)C2)[C@@H](C)OCc1ccccc1` [I-108B], above 10 µM.
For `CNC(=O)[C@@H](NC(=O)[C@@H]1CN(C(=O)c2cnn(Cc3ccccc3)c2)CC12CN(C(=O)[C@H]1CC1(C)C)C2)[C@@H](C)OCC1CCCC1` [I-110A] the value was 0.5 to 5 µM.
Regarding `CNC(=O)[C@@H](NC(=O)[C@@H]1CN(C(=O)c2n[nH]c3ccccc23)CC12CN(C(=O)[C@H]1CC1(C)C)C2)[C@@H](C)OCc1ccccc1` [I-112A], the IC50 was above 10 µM.
For `CNC(=O)[C@@H](NC(=O)[C@H]1CN(C(=O)c2n[nH]c3ccccc23)CC12CN(C(=O)[C@H]1CC1(C)C)C2)[C@@H](C)OCc1ccccc1` [I-112B] the value was above 10 µM; for `CNC(=O)[C@H](COCc1ccccc1)NC(=O)[C@@H]1CN(C(=O)c2cnn(Cc3ccccc3)c2)CC12CN(C(=O)C1(C(F)(F)F)CC1)C2` [I-113A, (S)-6-(1-benzyl-1H-pyrazole-4-carbonyl)-N—((S)-3-(benzyloxy)-1-(methylamino)-1-oxopropan-2-yl)-2-(1-(trifluoromethyl)cyclopropane-1-carbonyl)-2,6-diazaspiro[3.4]octane-8-carboxamide], above 10 µM; for `CNC(=O)[C@@H](NC(=O)[C@@H]1CN(C(=O)c2cnn(Cc3ccccc3)c2)CC12CN(C(=O)C1(C3CC3)CC1)C2)[C@@H](C)OCc1ccccc1` [I-114A], above 10 µM.
Then `CNC(=O)[C@@H](NC(=O)[C@H]1CN(C(=O)c2cnn(Cc3ccccc3)c2)CC12CN(C(=O)C1(C3CC3)CC1)C2)[C@@H](C)OCc1ccccc1` [I-114B], with above 10 µM; and `CNC(=O)[C@@H](NC(=O)[C@@H]1CN(C(=O)c2cnn(Cc3ccccc3)c2)CC12CN(C(=O)C1(CC3CC3)CC1)C2)[C@@H](C)OCc1ccccc1` [I-116A], with above 10 µM.
For `CNC(=O)[C@@H](NC(=O)[C@H]1CN(C(=O)c2cnn(Cc3ccccc3)c2)CC12CN(C(=O)C1(CC3CC3)CC1)C2)[C@@H](C)OCc1ccccc1` [I-116B] the value was above 10 µM; for `CNC(=O)[C@@H](NC(=O)[C@@H]1CN(C(=O)c2cnn(Cc3ccccc3)c2)CC12CN(C(=O)C1(CCF)CC1)C2)[C@@H](C)OCc1ccccc1` [I-117A], above 10 µM; for `CNC(=O)[C@@H](NC(=O)[C@H]1CN(C(=O)c2cnn(Cc3ccccc3)c2)CC12CN(C(=O)C1(CCF)CC1)C2)[C@@H](C)OCc1ccccc1` [I-117B], above 10 µM.
Consider `CNC(=O)[C@@H](NC(=O)[C@@H]1CN(C(=O)c2cnn(Cc3ccccc3)c2)CC12CN(C(=O)[C@H]1CC1(C)C)C2)[C@@H](C)OCC1CCOCC1` [I-119A], for which the IC50 was above 10 µM.
For `CNC(=O)[C@@H](NC(=O)[C@H]1CN(C(=O)c2cnn(Cc3ccccc3)c2)CC12CN(C(=O)[C@H]1CC1(C)C)C2)[C@@H](C)OCC1CCOCC1` [I-119B] the value was above 10 µM.
Then `CC1(C)C[C@@H]1C(=O)N1CC2(CN(C(=O)c3cnn(Cc4ccccc4)c3)C[C@H]2C(=O)N[C@H]2CCc3cc(Cl)ccc32)C1` [I-120A], with above 10 µM; and `CC1(C)C[C@@H]1C(=O)N1CC2(CN(C(=O)c3cnn(Cc4ccccc4)c3)C[C@@H]2C(=O)N[C@H]2CCc3cc(Cl)ccc32)C1` [I-120B], with above 10 µM.
For `CNC(=O)[C@@H](NC(=O)[C@@H]1CN(C(=O)c2cnn(CC3CCOCC3)c2)CC12CN(C(=O)[C@H]1CC1(C)C)C2)[C@@H](C)OCC1CCCCC1` [I-121A] the value was 5 to 10 µM; for `CNC(=O)[C@@H](NC(=O)[C@H]1CN(C(=O)c2cnn(CC3CCOCC3)c2)CC12CN(C(=O)[C@H]1CC1(C)C)C2)[C@@H](C)OCC1CCCCC1` [I-121B], above 10 µM; for `COCCNC(=O)[C@@H]1CN(C(=O)c2cnn(Cc3ccccc3)c2)CC12CN(C(=O)[C@H]1CC1(C)C)C2` [I-122A], above 10 µM.
With `COCCNC(=O)[C@H]1CN(C(=O)c2cnn(Cc3ccccc3)c2)CC12CN(C(=O)[C@H]1CC1(C)C)C2` [I-122B], the IC50 was above 10 µM.
As for `CNC(=O)[C@@H](NC(=O)[C@H]1CN(C(=O)c2cnn(Cc3ccccc3)c2)CC12CN(C(=O)[C@H]1CC1(C)C)C2)[C@@H](C)OCC1CCCCC1` [I-123B], the IC50 was above 10 µM.
Turning to `C[C@@H]1C[C@H](C)CN(C(=O)[C@@H](NC(=O)C2CN(C(=O)c3cn[nH]c3)CC23CN(C(=O)[C@H]2CC2(C)C)C3)[C@@H](C)OCc2ccccc2)C1` (stereo partly drawn) [I-124], the IC50 is above 10 µM.
Then `COc1cccc(CNC(=O)[C@@H]2CN(C(=O)c3cnn(Cc4ccccc4)c3)CC23CN(C(=O)[C@H]2CC2(C)C)C3)n1` [I-126A], with above 10 µM; and `COc1cccc(CNC(=O)[C@H]2CN(C(=O)c3cnn(Cc4ccccc4)c3)CC23CN(C(=O)[C@H]2CC2(C)C)C3)n1` [I-126B], with above 10 µM.
Then `C[C@H](NC(=O)[C@@H]1CN(C(=O)c2cnn(Cc3ccccc3)c2)CC12CN(C(=O)[C@H]1CC1(C)C)C2)c1cccc(F)c1` [I-127A], with above 10 µM.
As to `C[C@H](NC(=O)[C@H]1CN(C(=O)c2cnn(Cc3ccccc3)c2)CC12CN(C(=O)[C@H]1CC1(C)C)C2)c1cccc(F)c1` [I-127B], the IC50 was above 10 µM.
Then `C[C@@H](NC(=O)[C@@H]1CN(C(=O)c2cnn(Cc3ccccc3)c2)CC12CN(C(=O)[C@H]1CC1(C)C)C2)c1cccc(F)c1` [I-128A], with above 10 µM.
